Measurements taken from ChEMBL document CHEMBL4364286, “Structure-Guided Design, Synthesis, and Biological Evaluation of (2-(1H-Indol-3-yl)-1H-imidazol-4-yl)(3,4,5-trimethoxyphenyl) Methanone (ABI-231) Analogues Targeting the Colchicine Binding Site in Tubulin” (J Med Chem, 2019).
The source made the active and inactive calls. The calls are words filed in the database; no cut-off is given here.

How the values were obtained:
A-375 [1] = test: Antiproliferative activity against human A375 cells after 72 hrs by MTT assay; type: functional, cell-based; settings: A-375, 72 h
M14 = test: Antiproliferative activity against human M14 cells after 72 hrs by MTT assay; type: functional, cell-based; settings: M14, 72 h
WM164 = test: Antiproliferative activity against human WM164 cells after 72 hrs by MTT assay; type: functional, cell-based; settings: WM164, 72 h
[2] = Half-life in CD-1 mouse liver microsomes in presence of NADPH regenerating system measured up to 4 hrs by UPLC-MS analysis; type: ADME, Microsome
[3] = Intrinsic clearance in CD-1 mouse liver microsomes in presence of NADPH regenerating system measured up to 4 hrs by UPLC-MS analysis; type: ADME, Microsome; settings: read-out: CLH
[4] = Half-life in rat liver microsomes pre-incubated for 15 mins followed by addition of NADPH regenerating system by LC-MS analysis; type: ADME, Microsome
[5] = Intrinsic clearance in rat liver microsomes pre-incubated for 15 mins followed by addition of NADPH regenerating system by LC-MS analysis; type: ADME, Microsome; settings: read-out: CLH
[6] = Half-life in human liver microsomes in presence of NADPH regenerating system; type: ADME, Microsome
[7] = Intrinsic clearance in human liver microsomes in presence of NADPH regenerating system; type: ADME, Microsome; settings: read-out: CLH
[8] = Antiproliferative activity against human DU145-TxR cells; type: functional, cell-based
[9] = Resistance index, ratio of IC50 for human DU145-TxR cells to IC50 for human DU145 cells; type: functional
Tubulin (Bos taurus) [10] = molecular target: T1, Tubulin (Bos taurus) (UniProt Q6B856+Q862L2+Q862F3); test: Induction of bovine brain tubulin polymerization at 10 uM measured at time interval of 1 mins for 20 mins by spectrophotometric analysis
Tubulin (Homo sapiens) [11] = molecular target: T2, Tubulin (Homo sapiens) (UniProt P68371+Q9H4B7+P0DPH7+P68366+Q13509+Q71U36+P04350+Q3ZCM7+P07437+P68363+Q9BQE3+Q6PEY2+Q13885+Q9BVA1+Q9BUF5); test: Effect on microtubule network in human WM164 cells assessed as induction of polymerization at 100 nM after 18 hrs by DAPI staining based fluorescence confocal microscopic method; type: cell-based
Tubulin (Homo sapiens) [12] = molecular target: T2, Tubulin (Homo sapiens); test: Effect on microtubule network in human WM164 cells assessed as formation of dense and aggregated bundles of microtubules at 100 nM after 18 hrs by DAPI staining based fluorescence confocal microscopic method; type: cell-based
A-375 [13] = test: Inhibition of anchorage-dependent colony formation in human A375 cells assessed as decrease in colony number at 5 nM after 12 days by crystal violet-staining based assay relative to control; type: functional; settings: A-375, 288 h
A-375 [14] = test: Antimigratory activity in human A375 cells assessed as wound closure at 5 nM after 22 hrs by scratch migration assay (reference value: 60.7 +/- 3.5%); type: functional
A-375 [15] = test: Antimigratory activity in human A375 cells assessed as wound closure at 25 nM after 22 hrs by scratch migration assay (reference value: 60.7 +/- 3.5%); type: functional
RPMI-7951 = test: Antimigratory activity in human RPMI7951 cells assessed as wound closure at 25 nM after 18 hrs by scratch migration assay (reference value: 71.8 +/- 1.8%); type: functional
PC-3 = test: Antiproliferative activity against human PC3 cells; type: functional, cell-based
[16] = Antiproliferative activity against human PC3-TxR cells; type: functional, cell-based
[17] = Resistance index, ratio of IC50 for human PC3-TxR cells to IC50 for human PC3 cells; type: functional
DU-145 = test: Antiproliferative activity against human DU145 cells; type: functional, cell-based
Tubulin (Bos taurus) [18] = molecular target: T1, Tubulin (Bos taurus); test: Inhibition of bovine brain tubulin polymerization at 10 uM measured at time interval of 1 mins for 20 mins by spectrophotometric analysis
Tubulin (Homo sapiens) [19] = molecular target: T2, Tubulin (Homo sapiens); test: Disruption of microtubule network in human WM164 cells assessed as microtubule fragmentation at 100 nM after 18 hrs by DAPI staining based fluorescence confocal microscopic method; type: cell-based
Tubulin (Homo sapiens) [20] = molecular target: T2, Tubulin (Homo sapiens); test: Disruption of microtubule network in human WM164 cells assessed as microtubule disassembly at 100 nM after 18 hrs by DAPI staining based fluorescence confocal microscopic method; type: cell-based

| Structure (SMILES) | IC50 (A-375 [1]; read-out: IC50) [nM] | IC50 (M14) [nM] | IC50 (WM164) [nM] | other results |
| --- | --- | --- | --- | --- |
| COc1cc(C(=O)c2c[nH]c(-c3c[nH]c4cccc(OC)c34)n2)cc(OC)c1OC | > 1000 | > 1000 | > 1000 | – |
| COc1cc(C(=O)c2c[nH]c(-c3ccc4[nH]ccc4c3)n2)cc(OC)c1OC | 8.6 | 18.5 | 6.1 | – |
| COc1cc(C(=O)c2c[nH]c(-c3cccc4cc[nH]c34)n2)cc(OC)c1OC | 286 | 241 | 436 | – |
| COC(=O)c1ccc2c(-c3nc(C(=O)c4cc(OC)c(OC)c(OC)c4)c[nH]3)c[nH]c2c1 | > 1000 | > 1000 | > 1000 | – |
| COc1cc(C(=O)c2c[nH]c(-c3c[nH]c4cccc(F)c34)n2)cc(OC)c1OC | 7.2 | 8.2 | – | – |
| COc1cc(C(=O)c2c[nH]c(-c3ccc4cc[nH]c4c3)n2)cc(OC)c1OC | 8 | 6.1 | 3.8 | half-life [2]: 5.56 h; CLint scaled [3]: 10.3 mL/min/kg; half-life [4]: 15.2 h; CLint scaled [5]: 3.1 mL/min/kg; half-life [6]: 7.61 h; CLint scaled [7]: 2.73 mL/min/kg |
| COc1cc(C(=O)c2c[nH]c(-c3c[nH]c4c(OC)cccc34)n2)cc(OC)c1OC | 38.3 | 34.1 | 115 | – |
| COc1cc(C(=O)c2c[nH]c(-c3c[nH]c4ccc(F)cc34)n2)cc(OC)c1OC | 19.2 | 18 | 80.9 | – |
| COc1cc(C(=O)c2c[nH]c(-c3c[nH]c4cccc(Br)c34)n2)cc(OC)c1OC | 13.8 | 10.4 | 67.1 | – |
| COc1ccc2c(-c3nc(C(=O)c4cc(OC)c(OC)c(OC)c4)c[nH]3)c[nH]c2c1 | 793 | > 1000 | > 1000 | – |
| COc1cc(C(=O)c2c[nH]c(-c3c[nH]c4c(OCc5ccccc5)cccc34)n2)cc(OC)c1OC | > 1000 | > 1000 | > 1000 | – |
| COc1cc(C(=O)c2c[nH]c(-c3c[nH]c4cc(O)ccc34)n2)cc(OC)c1OC | > 1000 | > 1000 | > 1000 | – |
| COc1cc(C(=O)c2c[nH]c(-c3c[nH]c4cc(Br)ccc34)n2)cc(OC)c1OC | 67.8 | 41.2 | 55.4 | – |
| COc1cc(C(=O)c2c[nH]c(-c3c[nH]c4ccc(Cl)cc34)n2)cc(OC)c1OC | 61.8 | 64.9 | 160 | – |
| COc1cc(C(=O)c2c[nH]c(-c3c[nH]c4ccc(Br)cc34)n2)cc(OC)c1OC | 164 | 104 | 442 | – |
| CC(=O)O[C@@]12CO[C@@H]1C[C@H](O)[C@@]1(C)C(=O)[C@H](O)C3=C(C)[C@@H](OC(=O)[C@H](O)[C@@H](NC(=O)OC(C)(C)C)c4ccccc4)C[C@@](O)([C@@H](OC(=O)c4ccccc4)[C@H]21)C3(C)C [DOCETAXEL ANHYDROUS] | – | – | – | IC50 [8]: 352 nM; Ratio IC50 [9]: >3523; Activity (Tubulin (Bos taurus) [10]): Active; Activity (Tubulin (Homo sapiens) [11]): Active; Activity (Tubulin (Homo sapiens) [12]): Active |
| COc1cc(C(=O)c2c[nH]c(-c3c[nH]c4cc(C)ccc34)n2)cc(OC)c1OC | 21.1 | 21.7 | 23.7 | – |
| COc1cc(C(=O)c2c[nH]c(-c3c(-c4ccccc4)[nH]c4ccccc34)n2)cc(OC)c1OC | > 1000 | > 1000 | > 1000 | – |
| COc1cc(C(=O)c2c[nH]c(-c3c[nH]c4ccc(OCc5ccccc5)cc34)n2)cc(OC)c1OC | > 1000 | > 1000 | > 1000 | – |
| COc1cc2c(c(OC)c1OC)-c1ccc(OC)c(=O)cc1[C@@H](NC(C)=O)CC2 [COLCHICINE] | – | 16.6 | 10.8 | IC50 (A-375 [1]): 14.1 nM; inhibition at 0.005 µM (A-375 [13]): 24.7%; Activity (A-375 [14]): 46%; Activity (A-375 [15]): 20.7%; Activity (RPMI-7951): 42.8%; IC50 (PC-3): 10.4 nM; IC50 [16]: 37.4 nM; Ratio IC50 [17]: 3.6; IC50 (DU-145): 35.5 nM; IC50 [8]: > 1000 nM; Ratio IC50 [9]: >28 |
| COc1cc(C(=O)c2c[nH]c(-c3c[nH]c4cccc(C)c34)n2)cc(OC)c1OC | 1.8 | 1.7 | 3.2 | inhibition (Tubulin (Bos taurus) [18]): Active; Activity (Tubulin (Homo sapiens) [19]): Active; Activity (Tubulin (Homo sapiens) [20]): Active; inhibition at 0.005 µM (A-375 [13]): 59%; Activity (A-375 [14]): 48.5%; Activity (A-375 [15]): 25.9%; Activity (RPMI-7951): 35.6%; half-life [2]: 2.42 h; CLint scaled [3]: 23.6 mL/min/kg; half-life [4]: 1.8 h; CLint scaled [5]: 26 mL/min/kg; half-life [6]: 6.7 h; CLint scaled [7]: 3.1 mL/min/kg; IC50 (PC-3): 5.2 nM; IC50 [16]: 3.9 nM; Ratio IC50 [17]: 0.8; IC50 (DU-145): 13.8 nM; IC50 [8]: 25.2 nM; Ratio IC50 [9]: 1.8 |
| COc1cc(C(=O)c2c[nH]c(-c3c[nH]c4c(C)cccc34)n2)cc(OC)c1OC | 13.1 | 10.8 | 61.3 | – |
| COc1cc(C(=O)c2c[nH]c(-c3c[nH]c4ccc(O)cc34)n2)cc(OC)c1OC | > 1000 | > 1000 | > 1000 | – |
| COc1cc(C(=O)c2c[nH]c(-c3c[nH]c4cc(F)ccc34)n2)cc(OC)c1OC | 17.5 | 5.8 | 10.3 | – |
| COc1cc(C(=O)c2c[nH]c(-c3c[nH]c4ccc(C)cc34)n2)cc(OC)c1OC | 278 | 177 | 552 | – |
| COc1cc(C(=O)c2c[nH]c(-c3c[nH]c4cc(OCc5ccccc5)ccc34)n2)cc(OC)c1OC | > 1000 | > 1000 | > 1000 | – |
| COc1cc(C(=O)c2c[nH]c(-c3c[nH]c4cccc(OCc5ccccc5)c34)n2)cc(OC)c1OC | > 1000 | > 1000 | > 1000 | – |
